# According to patent US20260130925A1, “METHODS FOR TREATING CANCER” (Genesis Molecular AI, Inc., priority 2022, published 2026):
# Target: T1, PI3Kα H1047R in T47D cells (Homo sapiens, UniProt P42336, H1047R)
# T1 construct: endogenous in cells; host or cells: T47D
# Assay: PI3Kα cellular assay: T47D pAKT S473 HTRF
# Format: cell-based
# Conditions: for T47D pAKT S473 HTRF IC50 (H1047R): T47D (H1047R) selectivity over SKBR3 (WT): T47D (H1047R) versus SKBR3 (WT) cells; for IC50: T47D cells (H1047R), serum starved, 1 hr compound, 20 ng/ml EGF 10 min
# Description: PI3Kα cellular assay experimental procedure: SKBR3 or T47D cells are seeded in DMEM containing 10% FBS at 25 k cells/well into 96-well cell culture format. Cells are incubated overnight at 37° C. in a 5% CO2 incubator and the following day cell media is aspirated, adherent cells are washed 1× with room temperature PBS prior to serum-free media application. Cells are returned to 37° C. 5% CO2 incubator and incubated a further 16 hrs. Compounds are added to serum starved adherent cells with a top dose of 10,000 nM and 3× multiple dose reductions for a minimum dose of 0.5 nM diluted in DMSO. Cell/compound incubation continues for 1 hr in a 37° C., 5% CO2 incubator prior to 10 minute PIK3CA stimulation with 20 ng/ml EGF. Cells treated with 0.1% DMSO and 20 ng/mL EGF are employed as negative control, cells treated with 10 uM Alpelisib and 20 ng/mL EGF are employed as a positive control. After 10 mins, plates are removed from incubator and cells are lysed with buffer and shaking 45 minutes. 20 μL of lysate is transferred to an opti-384 plate and 2.5 μl of Phospho-AKT d2 antibody with 2.5 μl of Phospho-AKT Eu Cryptate solution in the detection buffer are added to each well. 384 well plate is left overnight at room temperature before reading HTRF on an Envision plate reader.
# T1 sequence (P42336 whole entry H1047R): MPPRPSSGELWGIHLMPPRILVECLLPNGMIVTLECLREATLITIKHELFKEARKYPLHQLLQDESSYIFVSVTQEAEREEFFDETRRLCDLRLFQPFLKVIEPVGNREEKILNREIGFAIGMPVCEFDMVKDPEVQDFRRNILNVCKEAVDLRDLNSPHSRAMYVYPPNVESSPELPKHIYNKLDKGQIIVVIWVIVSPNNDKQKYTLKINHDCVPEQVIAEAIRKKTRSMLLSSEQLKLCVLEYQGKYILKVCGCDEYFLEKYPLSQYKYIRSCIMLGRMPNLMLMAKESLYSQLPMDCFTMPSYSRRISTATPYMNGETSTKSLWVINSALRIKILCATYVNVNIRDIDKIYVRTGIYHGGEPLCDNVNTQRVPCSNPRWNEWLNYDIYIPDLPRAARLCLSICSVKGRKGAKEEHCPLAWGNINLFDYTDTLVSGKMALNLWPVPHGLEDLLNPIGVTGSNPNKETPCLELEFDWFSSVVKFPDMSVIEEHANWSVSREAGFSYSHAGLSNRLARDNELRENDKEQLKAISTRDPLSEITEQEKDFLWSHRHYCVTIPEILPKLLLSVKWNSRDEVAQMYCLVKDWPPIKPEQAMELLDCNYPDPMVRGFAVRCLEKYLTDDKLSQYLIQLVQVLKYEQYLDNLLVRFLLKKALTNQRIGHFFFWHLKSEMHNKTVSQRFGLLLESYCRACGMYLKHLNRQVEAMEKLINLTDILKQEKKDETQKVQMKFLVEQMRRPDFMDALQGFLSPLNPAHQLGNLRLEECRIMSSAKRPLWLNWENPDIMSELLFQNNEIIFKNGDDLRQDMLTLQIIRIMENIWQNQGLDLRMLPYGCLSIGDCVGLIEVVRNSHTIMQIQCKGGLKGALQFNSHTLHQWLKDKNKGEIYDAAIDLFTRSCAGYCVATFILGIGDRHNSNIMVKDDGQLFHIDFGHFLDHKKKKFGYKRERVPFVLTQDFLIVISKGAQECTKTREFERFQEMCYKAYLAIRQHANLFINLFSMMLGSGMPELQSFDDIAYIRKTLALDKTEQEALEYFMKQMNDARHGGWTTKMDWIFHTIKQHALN
# T1 sequence (P27986 whole entry partner): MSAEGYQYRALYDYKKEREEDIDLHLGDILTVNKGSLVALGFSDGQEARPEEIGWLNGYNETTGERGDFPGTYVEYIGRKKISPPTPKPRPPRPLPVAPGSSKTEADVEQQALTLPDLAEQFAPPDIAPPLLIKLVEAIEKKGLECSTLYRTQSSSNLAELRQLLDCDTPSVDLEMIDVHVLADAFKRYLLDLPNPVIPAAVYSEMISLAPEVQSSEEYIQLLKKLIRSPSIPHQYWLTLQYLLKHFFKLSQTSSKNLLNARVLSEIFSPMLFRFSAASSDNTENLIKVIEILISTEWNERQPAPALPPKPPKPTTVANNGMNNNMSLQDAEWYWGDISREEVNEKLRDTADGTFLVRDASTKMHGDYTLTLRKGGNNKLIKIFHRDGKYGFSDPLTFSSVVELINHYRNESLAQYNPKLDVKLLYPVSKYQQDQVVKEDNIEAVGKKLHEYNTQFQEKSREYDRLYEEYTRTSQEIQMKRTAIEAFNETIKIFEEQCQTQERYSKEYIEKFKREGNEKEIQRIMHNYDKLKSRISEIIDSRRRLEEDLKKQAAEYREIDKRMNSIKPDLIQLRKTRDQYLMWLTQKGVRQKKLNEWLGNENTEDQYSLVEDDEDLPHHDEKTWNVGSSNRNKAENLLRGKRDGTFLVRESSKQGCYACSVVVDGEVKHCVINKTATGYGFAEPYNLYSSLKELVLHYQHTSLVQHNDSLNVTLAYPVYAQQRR
Compound,T47D pAKT S473 HTRF IC50 (H1047R): T47D (H1047R) selectivity over SKBR3 (WT),IC50 [nM]
Cc1cc([C@@H](C)Nc2ccccc2C(=O)O)c2nc(N3Cc4ccccc4C3)[nH]c(=O)c2c1 [Compound 4],C (C denotes ≤5-fold),≥ 2000
Cc1cc([C@H](C)Nc2ccccc2C(=O)O)c2nc(N3CCC(C)(C)CC3)nc(O)c2c1 [Compound 11],B (B denotes 20-fold≥value>5-fold),750 to 2000
Cc1cc([C@@H](C)Nc2ccccc2C(=O)O)c2nc(N3CCC(C)(C)CC3)nc(O)c2c1 [Compound 12],C (C denotes ≤5-fold),≥ 2000
Cc1cc([C@H](C)Nc2ccccc2C(=O)O)c2[nH]c(N3CCOCC3)nc(=O)c2c1 [Compound 17],B (B denotes 20-fold≥value>5-fold),< 750
Cc1cc([C@@H](C)Nc2ccccc2C(=O)O)c2[nH]c(N3CCOCC3)nc(=O)c2c1 [Compound 18],C (C denotes ≤5-fold),≥ 2000
Cc1cc(C(C)Nc2ccccc2C(=O)O)c2nc(N3CCC(C)(C)CC3)nc(NC(=O)CCl)c2c1 (stereo not drawn) [Compound 21],C (C denotes ≤5-fold),≥ 2000
Cc1cc(C(C)Nc2ccccc2C(=O)O)c2nc(N3Cc4ccccc4C3)ccc2c1 (stereo not drawn) [Compound 30],B (B denotes 20-fold≥value>5-fold),750 to 2000
Cc1cc([C@@H](C)Nc2ccccc2C(=O)O)c2nc(N3Cc4ccccc4C3)ncc2c1 [Compound 35],C (C denotes ≤5-fold),≥ 2000
Cc1cc([C@H](C)Nc2ccccc2C(=O)O)c2nc(N3Cc4ccccc4C3)ncc2c1 [Compound 36],B (B denotes 20-fold≥value>5-fold),750 to 2000
Cc1cc([C@H](C)Nc2ccccc2C(=O)O)c2nc(-c3ccc(F)cc3)n(C)c(=O)c2c1 [Compound 39],C (C denotes ≤5-fold),≥ 2000
Cc1cc(C(C)Nc2ccccc2C(=O)O)c2cc(N3Cc4ccccc4C3)nc(C#N)c2c1 (stereo not drawn) [Compound 46],C (C denotes ≤5-fold),≥ 2000
Cc1cc(C(C)Nc2ccccc2C(=O)O)c2cc(N3Cc4ccccc4C3)ncc2c1 (stereo not drawn) [Compound 59],B (B denotes 20-fold≥value>5-fold),750 to 2000
Cc1cc(C(C)Nc2ccccc2C(=O)O)c2nc(N3CCC(C)(C)CC3)nc(C#N)c2c1 (stereo not drawn) [Compound 61],A (A denotes >20-fold),< 750
Cc1cc(C(C)Nc2ccccc2C(=O)O)c2nc(N3Cc4ccccc4C3)nc(NC3CC3O)c2c1 (stereo not drawn) [Compound 65],B (B denotes 20-fold≥value>5-fold),750 to 2000
Cc1cc(C(C)Nc2ccccc2C(=O)O)c2nc(N3Cc4ccccc4C3)nc(C3CC3O)c2c1 (stereo not drawn) [Compound 69],B (B denotes 20-fold≥value>5-fold),750 to 2000
Cc1cc(C(C)Nc2ccccc2C(=O)O)c2nc(N3Cc4ccccc4C3)nc(NC3COC3)c2c1 (stereo not drawn) [Compound 71],C (C denotes ≤5-fold),≥ 2000
Cc1cc([C@@H](C)Nc2ccccc2C(=O)O)c2cc(-c3ccc4c(c3)c(C)nn4C)n(C)c(=O)c2c1 [Compound 86],A (A denotes >20-fold),< 750
Cc1cc(C(C)Nc2ccccc2C(=O)O)c2cc(-c3ccc4c(c3)c(C)nn4C)n(C)c(=O)c2c1 (stereo not drawn) [Compound 87],A (A denotes >20-fold),< 750
Cc1cc([C@@H](C)Nc2ccccc2C(=O)O)c2cc(-c3ccnc(C4CC4)c3)ncc2c1 [Compound 89],A (A denotes >20-fold),< 750
Cc1cc([C@@H](C)Nc2ccccc2C(=O)O)c2cc(OC3CCOCC3)ncc2c1 [Compound 132],A (A denotes >20-fold),< 750
Cc1cc([C@@H](C)Nc2ccccc2C(=O)O)c2nc(-c3ccc4c(c3)c(C)cn4C)n(C)c(=O)c2c1 [Compound 134],A (A denotes >20-fold),< 750
Cc1cc(C(C)Nc2ccccc2C(=O)O)c2nc(-c3ccc(C4CC4)nc3)n(C)c(=O)c2c1 (stereo not drawn) [Compound 136],A (A denotes >20-fold),< 750
Cc1cc([C@@H](C)Nc2ccccc2C(=O)O)c2nc(-c3ccc(C#N)nc3)n(C)c(=O)c2c1 [Compound 138],A (A denotes >20-fold),< 750
Cc1cc(C(C)Nc2ccccc2C(N)=O)c2nc(-c3cccnc3)n(C)c(=O)c2c1 (stereo not drawn) [Compound 139],B (B denotes 20-fold≥value>5-fold),750 to 2000
Cc1cc([C@@H](C)Nc2ccccc2C(N)=O)c2nc(-c3cccnc3)n(C)c(=O)c2c1 [Compound 141],B (B denotes 20-fold≥value>5-fold),< 750

# The next lines start with the values.
T47D pAKT S473 HTRF IC50 (H1047R): T47D (H1047R) selectivity over SKBR3 (WT),IC50 [nM],Compound
C (C denotes ≤5-fold),≥ 2000,Cc1cc([C@H](C)Nc2ccccc2C(=O)O)c2nc(N3CCC(C)(C)CC3)nc(N)c2c1 [Compound 1]
C (C denotes ≤5-fold),≥ 2000,Cc1cc([C@@H](C)Nc2ccccc2C(=O)O)c2nc(N3CCC(C)(C)CC3)nc(N)c2c1 [Compound 2]
C (C denotes ≤5-fold),≥ 2000,Cc1cc(C(C)Nc2ccccc2C(=O)O)c2nc(N3CCC(C)(C)CC3)nc(N)c2c1 (stereo not drawn) [Compound 3]
C (C denotes ≤5-fold),≥ 2000,Cc1cc(C(C)Nc2ccccc2C(=O)O)c2nc(N3Cc4ccccc4C3)[nH]c(=O)c2c1 (stereo not drawn) [Compound 6]
C (C denotes ≤5-fold),≥ 2000,Cc1cc([C@H](C)Nc2ccccc2C(=O)O)c2nc(N3CCC(C)(C)CC3)ncc2c1 [Compound 7]
B (B denotes 20-fold≥value>5-fold),< 750,"Cc1cc(C(C)Nc2ccccc2C(=O)O)c2nc(-c3ccncc3)nc(O)c2c1 (stereo not drawn) [Compound 9, 2-((1-(4-hydroxy-6-methyl-2-(pyridin-4-yl)quinazolin-8-yl)ethyl)amino)benzoic acid]"
C (C denotes ≤5-fold),≥ 2000,Cc1cc(C(C)Nc2ccccc2C(=O)O)c2nc(N3CCC(C)(C)CC3)nc(C(N)=O)c2c1 (stereo not drawn) [Compound 23]
A (A denotes >20-fold),< 750,Cc1cc(C(C)Nc2ccccc2C(=O)O)c2nc(N3Cc4ccccc4C3)nc(C(N)=O)c2c1 (stereo not drawn) [Compound 24]
B (B denotes 20-fold≥value>5-fold),750 to 2000,"Cc1cc(C(C)Nc2ccccc2C(=O)O)c2nc(N3Cc4ccccc4C3)nc(N3CC(O)C3)c2c1 (stereo not drawn) [Compound 63, 2-((1-(4-(3-hydroxyazetidin-1-yl)-2-(isoindolin-2-yl)-6-methylquinazolin-8-yl)ethyl)amino)benzoic acid]"
A (A denotes >20-fold),< 750,Cc1cc(C(C)Nc2ccccc2C(=O)O)c2cc(OCc3ccccc3)nc(C(N)=O)c2c1 (stereo not drawn) [Compound 128]
A (A denotes >20-fold),< 750,Cc1cc(C(C)Nc2ccccc2C(=O)O)c2cc(C3CCCOC3)ncc2c1 (stereo not drawn) [Compound 131]
A (A denotes >20-fold),< 750,Cc1cc(C(C)Nc2ccccc2C(=O)O)c2nc(-c3ccc4c(c3)c(C)cn4C)n(C)c(=O)c2c1 (stereo not drawn) [Compound 133]
A (A denotes >20-fold),< 750,Cc1cc([C@@H](C)Nc2ccccc2C(=O)O)c2nc(-c3ccc(C)nc3)n(C)c(=O)c2c1 [Compound 135]
A (A denotes >20-fold),< 750,Cc1cc([C@@H](C)Nc2ccccc2C(=O)O)c2nc(-c3cccnc3)n(C)c(=O)c2c1 [Compound 137]
B (B denotes 20-fold≥value>5-fold),< 750,Cc1cc([C@@H](C)Nc2ccccc2C(=O)O)c2nc(-c3cnc(C)c(Cl)c3)n(C)c(=O)c2c1 [Compound 140]
A (A denotes >20-fold),< 750,Cc1cc([C@@H](C)Nc2ccccc2S(N)(=O)=O)c2nc(-c3cccnc3)n(C)c(=O)c2c1 [Compound 142]
A (A denotes >20-fold),< 750,Cc1cc([C@@H](C)Nc2ccccc2C(=O)O)c2nc(-c3ccnc(C#N)c3)n(C)c(=O)c2c1 [Compound 143]
